Series [1] addresses T1, Human Neuropeptide Y2 Receptor (Homo sapiens, UniProt P49146).
T1 construct: purchased CHEMICON HTS066M
T1 sequence (P49146 1-381): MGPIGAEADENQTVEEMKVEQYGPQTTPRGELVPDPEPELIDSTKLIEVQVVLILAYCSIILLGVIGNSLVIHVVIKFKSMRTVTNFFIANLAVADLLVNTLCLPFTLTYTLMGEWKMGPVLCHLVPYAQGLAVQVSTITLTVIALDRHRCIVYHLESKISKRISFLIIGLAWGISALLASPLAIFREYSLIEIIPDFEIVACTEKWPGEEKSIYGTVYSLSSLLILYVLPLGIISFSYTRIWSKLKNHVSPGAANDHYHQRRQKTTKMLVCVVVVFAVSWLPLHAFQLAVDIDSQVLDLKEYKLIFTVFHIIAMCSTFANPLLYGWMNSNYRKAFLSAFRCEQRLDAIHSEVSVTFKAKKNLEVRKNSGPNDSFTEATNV
Briefly: Radioligand binding competition assay (RLB). The following applies: Table 3, 125I-PYY(1-36) competition; read-out: Ki. Put shortly: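 IC50 values come from sigmoidal dose-response fits of scintillation counts after peptides competed for radioligand binding at receptor membranes (0.5 μg protein/well). Incubation ran 2 h at room temperature in HEPES buffer, pH 7.4, with Mg2+, Ca2+ and 0.2% ovalbumin.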

Another series can be described thus: Solubility determination. As to conditions: for Sol6: pH 6; for Sol7: pH 7. Put shortly: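 Shake-flask style: 10 mg/ml peptide (TFA salt), 0.1 M sodium diphosphate pH 6.4/7.0, 600 rpm, 2 h, RT; filter; dilute 1 mg/ml in 50% MeCN; RP-UPLC, 0–100% B over 2 min, 50 °C. Solubility = sample/control area ratio. Final pH recorded.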

SMILES strings stand for the structures. *1 amine or outer side, *2 acyl side, *3 side chain or, on linkers, in order; H or OH if unused. Where a SMILES comes first, the peptide text is derived from it. Side-chain parts run from the residue outwards. The star is where a group is joined. C18 diacid = O=C(O)CCCCCCCCCCCCCCCCC(=O)*; γGlu = O=C(O)[C@H](CCC(=O)[*:2])N[*:1]; Isovaleryl = CC(C)CC(=O)*; Ahx = NCCCCCC(=O)O

In the case of `CC(C)CC(=O)N[C@@H](C)C(=O)N1CCC[C@H]1C(=O)N[C@@H](CCC(=O)O)C(=O)N[C@@H](CCCCNC(=O)CCCCCNC(=O)CC[C@H](NC(=O)CCCCCCCCCCCCCCCCC(=O)O)C(=O)O)C(=O)N1CCC[C@H]1C(=O)N[C@@H](CCC(=O)O)C(=O)N[C@@H](CCC(=O)O)C(=O)N[C@@H](CC(=O)O)C(=O)N[C@@H](C)C(=O)N[C@H](C(=O)N1CCC[C@H]1C(=O)N[C@@H](CCC(=O)O)C(=O)N[C@@H](CCC(=O)O)C(=O)N[C@@H](CC(C)C)C(=O)N[C@@H](CCC(N)=O)C(=O)N[C@@H](CCCNC(=N)N)C(=O)N[C@@H](Cc1ccc(O)cc1)C(=O)N[C@@H](Cc1ccc(O)cc1)C(=O)N[C@H](C(=O)N[C@@H](CO)C(=O)N[C@@H](CC(C)C)C(=O)N[C@@H](CCCNC(=N)N)C(=O)N[C@@H](Cc1c[nH]cn1)C(=O)N[C@@H](Cc1ccc(O)cc1)C(=O)N[C@@H](Cc1ccc(O)cc1)C(=O)N[C@@H](CC(N)=O)C(=O)N[C@@H](Cc1c[nH]c2ccccc12)C(=O)N[C@@H](CC(C)C)C(=O)N[C@H](C(=O)N[C@@H](CCCNC(=N)N)C(=O)N[C@@H](CCC(N)=O)C(=O)N[C@@H](CCCNC(=N)N)C(=O)N[C@@H](Cc1ccc(O)cc1)C(N)=O)[C@@H](C)O)C(C)C)[C@@H](C)O` [Compound 173, N{alpha-4}-(3-methylbutanoyl)-N{epsilon-7}-(6-[(4S)-4-carboxy-4-(17-carboxyheptadecanamido)butanamido]hexanoyl)-[4A,7K,9E,13T,18Q,22V,28Y,30W,31L]-hPYY(4-36)], in series [1], the Ki turned out to be 4.07 nM. In “Solubility determination”, the “Sol6” value is 9.2 mg/mL and the “Sol7” value was found to be 9.6 mg/mL.
The corresponding values for `CC(C)CC(=O)N[C@@H](C)C(=O)N1CCC[C@H]1C(=O)N[C@@H](CCC(=O)O)C(=O)N[C@@H](CCCCNC(=O)CCCCCNC(=O)CC[C@H](NC(=O)CCCCCCCCCCCCCCCCC(=O)O)C(=O)O)C(=O)N1CCC[C@H]1C(=O)NCC(=O)N[C@@H](C)C(=O)N[C@@H](CC(=O)O)C(=O)N[C@@H](C)C(=O)N[C@@H](CO)C(=O)N1CCC[C@H]1C(=O)N[C@@H](CCC(=O)O)C(=O)N[C@@H](CCCCN)C(=O)N[C@@H](CC(C)C)C(=O)N[C@@H](CCC(N)=O)C(=O)N[C@@H](CCCNC(=N)N)C(=O)N[C@@H](Cc1ccc(O)cc1)C(=O)N[C@@H](Cc1ccc(O)cc1)C(=O)N[C@H](C(=O)N[C@@H](CO)C(=O)N[C@@H](CC(C)C)C(=O)N[C@@H](CCCNC(=N)N)C(=O)N[C@@H](Cc1c[nH]cn1)C(=O)N[C@@H](Cc1ccc(O)cc1)C(=O)N[C@@H](Cc1ccc(O)cc1)C(=O)N[C@@H](Cc1c[nH]cn1)C(=O)N[C@@H](CCCCN)C(=O)N[C@@H](CC(C)C)C(=O)N[C@H](C(=O)N[C@@H](CCCNC(=N)N)C(=O)N[C@@H](CCC(N)=O)C(=O)N[C@@H](CCCNC(=N)N)C(=O)N[C@@H](Cc1ccc(O)cc1)C(N)=O)[C@@H](C)O)C(C)C` [Compound 174, N{alpha-4}-(3-methylbutanoyl)-N{epsilon-7}-(6-[(4S)-4-carboxy-4-(17-carboxyheptadecanamido)butanamido]hexanoyl)-[4A,7K,10A,16K,18Q,22V,28Y,29H,30K,31L]-hPYY(4-36)] (Isovaleryl-APEK([Ahx-γGlu-C18 diacid])PGADASPEKLQRYYVSLRHYYHKLTRQRY-NH2) are 0.21 nM, 3.1 mg/mL and 1.2 mg/mL.
The like results for `CC(C)CC(=O)N[C@@H](C)C(=O)N1CCC[C@H]1C(=O)N[C@@H](CCC(=O)O)C(=O)N[C@@H](CCCCNC(=O)CCCCCNC(=O)CC[C@H](NC(=O)CCCCCCCCCCCCCCCCC(=O)O)C(=O)O)C(=O)N1CCC[C@H]1C(=O)N[C@@H](CCC(=O)O)C(=O)N[C@@H](CCC(=O)O)C(=O)N[C@@H](CC(=O)O)C(=O)N[C@@H](C)C(=O)N[C@H](C(=O)N1CCC[C@H]1C(=O)N[C@@H](CCC(=O)O)C(=O)N[C@@H](CCC(=O)O)C(=O)N[C@@H](CC(C)C)C(=O)N[C@@H](CCC(N)=O)C(=O)N[C@@H](CCC(N)=O)C(=O)N[C@@H](Cc1ccc(O)cc1)C(=O)N[C@@H](Cc1ccc(O)cc1)C(=O)N[C@H](C(=O)N[C@@H](CO)C(=O)N[C@@H](CC(C)C)C(=O)N[C@@H](CCCNC(=N)N)C(=O)N[C@@H](Cc1c[nH]cn1)C(=O)N[C@@H](Cc1ccc(O)cc1)C(=O)N[C@@H](Cc1ccc(O)cc1)C(=O)N[C@@H](CC(N)=O)C(=O)N[C@@H](Cc1c[nH]c2ccccc12)C(=O)N[C@@H](CC(C)C)C(=O)N[C@H](C(=O)N[C@@H](CCCNC(=N)N)C(=O)N[C@@H](CCC(N)=O)C(=O)N[C@@H](CCCNC(=N)N)C(=O)N[C@@H](Cc1ccc(O)cc1)C(N)=O)[C@@H](C)O)C(C)C)[C@@H](C)O` [Compound 177, N{alpha-4}-(3-methylbutanoyl)-N{epsilon-7}-(6-[(4S)-4-carboxy-4-(17-carboxyheptadecanamido)butanamido]hexanoyl)-[4A,7K,9E,13T,18Q,19Q,22V,28Y,30W,31L]-hPYY(4-36)] were, in that order, 8.65 nM, above 10.0 mg/mL and 10.0 mg/mL.
`CC[C@H](C)[C@H](NC(=O)[C@H](CCC(=O)O)NC(=O)[C@H](CCC(=O)O)NC(=O)[C@@H]1CCCN1C(=O)[C@@H](NC(=O)[C@H](C)NC(=O)[C@H](C)NC(=O)[C@H](C)NC(=O)[C@H](CCC(=O)O)NC(=O)[C@@H]1CCCN1C(=O)[C@H](CCCCNC(=O)CCCCCNC(=O)CC[C@H](NC(=O)CCCCCCCCCCCCCCCCC(=O)O)C(=O)O)NC(=O)[C@H](CCC(=O)O)NC(=O)[C@@H]1CCCN1C(=O)[C@H](C)NC(=O)CC(C)C)[C@@H](C)O)C(=O)N[C@@H](CCC(N)=O)C(=O)N[C@@H](CCCNC(=N)N)C(=O)N[C@@H](Cc1ccc(O)cc1)C(=O)N[C@@H](Cc1ccc(O)cc1)C(=O)N[C@H](C(=O)N[C@@H](C)C(=O)N[C@@H](CC(C)C)C(=O)N[C@@H](CCCNC(=N)N)C(=O)N[C@@H](Cc1c[nH]cn1)C(=O)N[C@@H](Cc1ccc(O)cc1)C(=O)N[C@@H](Cc1ccc(O)cc1)C(=O)N[C@@H](CC(N)=O)C(=O)N[C@@H](Cc1c[nH]c2ccccc12)C(=O)N[C@@H](CC(C)C)C(=O)N[C@H](C(=O)N[C@@H](CCCNC(=N)N)C(=O)N[C@@H](CCC(N)=O)C(=O)N[C@@H](CCCNC(=N)N)C(=O)N[C@@H](Cc1ccc(O)cc1)C(N)=O)[C@@H](C)O)C(C)C` [Compound 178, N{alpha-4}-(3-methylbutanoyl)-N{epsilon-7}-(6-[(4S)-4-carboxy-4-(17-carboxyheptadecanamido)butanamido]hexanoyl)-[4A,7K,9E,10A,11A,13T,17I,18Q,22V,23A,28Y,30W,31L]-hPYY(4-36)]: in series [1], the inhibition constant Ki came to 3.39 nM. Moreover, in “Solubility determination”, the “Sol6” value amounted to 0.0 mg/mL and the “Sol7” value worked out at 0.4 mg/mL.
The like results for `CC(C)CC(=O)N[C@@H](C)C(=O)N1CCC[C@H]1C(=O)N[C@@H](CCC(=O)O)C(=O)N[C@@H](CCCCNC(=O)CCCCCNC(=O)CC[C@H](NC(=O)CCCCCCCCCCCCCCCCC(=O)O)C(=O)O)C(=O)N1CCC[C@H]1C(=O)N[C@@H](CCC(=O)O)C(=O)N[C@@H](C)C(=O)N[C@@H](CC(=O)O)C(=O)N[C@@H](C)C(=O)N[C@@H](CO)C(=O)N1CCC[C@H]1C(=O)N[C@@H](CCC(=O)O)C(=O)N[C@@H](CCC(=O)O)C(=O)N[C@H](C(=O)N[C@@H](CCC(N)=O)C(=O)N[C@@H](CCCNC(=N)N)C(=O)N[C@@H](Cc1ccc(O)cc1)C(=O)N[C@@H](Cc1ccc(O)cc1)C(=O)N[C@H](C(=O)N[C@@H](C)C(=O)N[C@@H](CC(C)C)C(=O)N[C@@H](CCCNC(=N)N)C(=O)N[C@@H](Cc1c[nH]cn1)C(=O)N[C@@H](Cc1ccc(O)cc1)C(=O)N[C@@H](Cc1ccc(O)cc1)C(=O)N[C@@H](CC(N)=O)C(=O)N[C@@H](Cc1c[nH]c2ccccc12)C(=O)N[C@@H](CC(C)C)C(=O)N[C@H](C(=O)N[C@@H](CCCNC(=N)N)C(=O)N[C@@H](CCC(N)=O)C(=O)N[C@@H](CCCNC(=N)N)C(=O)N[C@@H](Cc1ccc(O)cc1)C(N)=O)[C@@H](C)O)C(C)C)[C@@H](C)O` [Compound 179, N{alpha-4}-(3-methylbutanoyl)-N{epsilon-7}-(6-[(4S)-4-carboxy-4-(17-carboxyheptadecanamido)butanamido]hexanoyl)-[4A,7K,9E,10A,17T,18Q,22V,23A,28Y,30W,31L]-hPYY(4-36)] were, in that order, 0.89 nM, 8.1 mg/mL and 8.3 mg/mL.

One may read the Ki as the dissociation constant of the complex between target and ligand, obtained from inhibition or displacement.

(Values after patent US12391737B2, “Soluble NPY2 receptor agonists” (Boehringer Ingelheim International GmbH, priority 2020, dated 2025).)
